In patent US6541240B1, “Bacterial cleavage of only organic C-N bonds of carbonaceous materials to reduce nitrogen content” (Petroleo Brasileiro S.A.-Petrobras, priority 1999, dated 2003):

Tests used:
[1] = tested on: Pseudomonas ayucida No PTA-806; assay: Nitrogen Bioavailability Assay, substrate range and specificity tests; format: cell-based; conditions: for growth on test compound as nitrogen source: substrate range and specificity tests
Excerpt: The ability of bacteria to utilize organic nitrogen compounds for growth can be measured by the Nitrogen Bioavailability Assay (NBA). This assay is based on the fact that all life requires some nitrogen for growth and, therefore, a situation can be created whereby quantifying bacterial growth provides a measure of the utilization of any organic or inorganic compound as a source of nitrogen.
Thus, the Nitrogen Availability Assay utilizes defined mineral salts medium in growth tests in which organonitrogen model compounds such as quinoline, pyridine, carbazole, and porphyrin serve as sources of carbon and/or nitrogen. Growth tests are performed using six conditions:
1. Test compound as sole source of carbon and nitrogen;
2. […]
3. Test compound as sole source of nitrogen (alternative carbon source, glucose/glycerol/succinate, is available);
4. Test compound present as well as alternative sources of carbon and nitrogen;
5. Only alternative nitrogen (ammonia) and carbon (glucose/glycerol/succinate) sources are available. The test compound is not present.
6. No nitrogen compounds of any kind are present, but alternative carbon (glucose/glycerol/succinate) sources are available.
These six growth conditions constitute a bioassay for the ability of a culture to metabolize organonitrogen compounds. […]
The NBA test may be performed with any organonitrogen test compound which is ordinarily used at a concentration of from 3 mM to 20 mM.
In order to determine the range of organonitrogen compounds that could serve as sole sources of nitrogen for growth for the various pure cultures of the invention various organonitrogen compounds and control compounds are tested according to the Nitrogen Bioavailability Assay procedure. All compounds are highly pure, analytical grade compounds.
The various cultures are inoculated into test tubes or shake flasks containing media components appropriate for the six test conditions.
The cultures are then incubated aerobically for 2 to 4 days, at room temperature or at 30° C.
The growth of the cultures is monitored by measuring the turbidity/optical density of the cultures in the various test conditions, or by determining colony forming units.
Test condition no 6 (nitrogen-free sample) is a negative control.
Test conditions no 4 and 5 are positive controls since the samples are amended with both a carbon and nitrogen source and therefore should produce healthy microbial growth unless the test compound is toxic to the culture being tested. In this event only condition no 5 should result in healthy growth.
Substrate range and specificity tests were also carried out for the microorganism of the invention.

[2] = tested on: Derivatives of Pseudomonas ayucida No PTA-806; assay: Utilization of organonitrogen compounds by derivative culture; format: cell-based
Excerpt: Similarly, derivatives of Pseudomonas ayucida No PTA-806 that are resistant to antiobiotics, either by the isolation of chromosomal mutations or by the introduction of suitable plasmids, retain the ability to selectively cleave C—N bonds in quinoline and other organonitrogen compounds.

Pseudomonas stutzeri = assay: Utilization of carbazole as nitrogen or carbon source; format: cell-based
Experimental: This culture is prepared by the methods described hereinbefore. […] Experimental results lead to the conclusion that C—N bonds in carbazole are selectively cleaved by the Pseudomonas stutzer culture isolated here although the specific metabolites produced have not yet been determined.

Yokenella sp. = assay: as above; format: cell-based
Experimental: The Yokenella sp. culture is prepared according to the principles described hereinbefore. […] Experimental results lead to the conclusion that C—N bonds in carbazole are selectively cleaved by the Yokenella sp. culture isolated here although the specific metabolites produced have not yet been determined.

Aneurinibacillus sp. = assay: Nitrogen Availability Assay, growth and substrate range tests of thermophilic culture; conditions: for growth on test compound (substrate range): 3 mM test compound, 2 to 3 weeks incubation; for minimum nitrogen concentration needed for growth: sole nitrogen source
Experimental: The growth curve for this microorganism on pyridine as sole nitrogen source at 55° C. was determined by adding pyridine at the concentration of 3 mM to the Modified A medium in a 300 ml shake flask with a side arm klett tube to take klett/turbidity readings. Inoculums from log phase cultures were used in studying the growth kinetics of the culture. […] All experiments were in triplicate.
The concentration of nitrogen required by Aneurinibacillus sp. for growth was investigated using ammonium chloride and pyridine as sole nitrogen sources in modified medium A, at pH 7 and 55° C.
Substrate range and specificity tests were carried out for this culture. Experiments were performed during 2 to 3 weeks of incubations in sterile tubes with 3 mM concentration of the test compounds and an incubation volume of 5 ml.

[3] = tested on: Pseudomonas ayucida No PTA-806; assay: Petroleum (shale oil) biodenitrogenation test; format: cell-based; conditions: overnight (16 hour) incubation
Experimental: One liter of culture OD600=1.67 is produced, which is harvested and the cell pellet is resuspended in 100 mls of ModA medium. The culture is divided into two 50 ml portions and 3 ml of shale oil (1.7 weight % nitrogen) is added to each. Then, the cultures are incubated under agitation at room temperature overnight (16 hours), the oil is separated and analyzed. The amount of quinoline present in oil samples is determined by GC, the area under the peak being corresponding to a retention time for quinoline.
Then duplicate washed concentrated cell suspensions were incubated with shale oil samples for 16 hours at 30° C. The control sample consisted of shale oil added to sterile ModA medium which was incubated for 16 hours at 30° C. After incubation the petroleum samples were recovered and analyzed.

[4] = tested on: Pseudomonas nitroreducens
[5] = modified medium A, pH 7, 55° C.
[6] = pyridine 3 mM as sole nitrogen source, 55° C., Modified A medium

c1ccc2nccnc2c1 [quinoxaline]
growth on test compound as nitrogen source [1]: grow
utilization / metabolism by derivative culture [2]: improved ability to utilize

c1ccc2c(c1)[nH]c1ccccc12 [carbazole]
utilization as sole nitrogen source (Pseudomonas stutzeri): able to utilize
utilization as source of carbon (Pseudomonas stutzeri): dose not utilize
utilization as sole nitrogen source (Yokenella sp.): able to utilize
utilization as source of carbon (Yokenella sp.): dose not utilize

O=C1CCc2ccccc2N1 [3,4-dihydro-(1H)-quinolinone]
growth on test compound as nitrogen source [1]: grow

NC(N)=O [urea]
growth on test compound as nitrogen source [1]: grow
growth on test compound (substrate range) (Aneurinibacillus sp.): showed growth

N[C@@H](Cc1c[nH]c2ccccc12)C(=O)O [tryptophan]
growth on test compound as nitrogen source [1]: grow
growth on test compound (substrate range) (Aneurinibacillus sp.): showed growth

c1ccc2ncccc2c1 [quinoline]
utilization as carbon source for growth [1]: lack of utilization
cell doubling time ([1]; defined salts medium, 30° C., quinoline as sole nitrogen source): 4.25 h
growth on test compound as nitrogen source [1]: grow
quinoline removed from shale oil [3]: about 68%
growth with compound as sole source of nitrogen [4]: growth with quinoline as sole source of nitrogen is indicated
reduction of total nitrogen content of the medium ([4]; quinoline 3.4 mM as sole source of nitrogen): up to 85%

Oc1cccc2cccnc12 [8-hydroxyquinoline]
growth on test compound as nitrogen source [1]: grow

c1ccc2ncncc2c1 [quinazoline]
utilization / metabolism by derivative culture [2]: increased substrate range for the metabolism

C=C1N(C)c2ccccc2C1(C)C [2-methylene-1,3,3-trimethyl indoline]
growth in the presence of test compound when quinoline simultaneously present as alternate nitrogen source [1]: grew in the presence of all of the test compounds except

CCCCN1CCCC1 [1-butylpyrrolidine]
growth in the presence of test compound when quinoline simultaneously present as alternate nitrogen source [1]: grew in the presence of all of the test compounds except

c1ccncc1 [pyridine]
utilization as carbon source (Aneurinibacillus sp.): no utilization
growth on test compound (substrate range) (Aneurinibacillus sp.): showed growth
utilization as sole nitrogen source (Aneurinibacillus sp.; 55° C.): able to utilize
concentration inhibitory to the culture (Aneurinibacillus sp.; [5]): higher than 10 mM
exponential growth rate (Aneurinibacillus sp.; [6]): 0.13 h
generation time (Aneurinibacillus sp.; [6]): 7.55 h
minimum nitrogen concentration needed for growth (Aneurinibacillus sp.; [5]): 0.5 mM

O=C(O)c1cccnc1 [nicotinic acid]
growth on test compound as nitrogen source [1]: grow
growth on test compound (substrate range) (Aneurinibacillus sp.): showed growth

O=c1ccc2cccc(O)c2o1 [8-hydroxycoumarin]
utilization as carbon source for growth [1]: lack of utilization

Oc1cc(O)c2ccccc2n1 [2,4-quinolinediol]
growth on test compound as nitrogen source [1]: grow

c1ccc2cnccc2c1 [isoquinoline]
utilization / metabolism by derivative culture [2]: increased substrate range for the metabolism

Nc1nc2nc[nH]c2c(=O)[nH]1 [guanine]
growth on test compound as nitrogen source [1]: grow
growth on test compound (substrate range) (Aneurinibacillus sp.): showed growth

Cl.N [ammonium chloride]
minimum nitrogen concentration needed for growth (Aneurinibacillus sp.; [5]): 0.5 mM

NCCCC[C@H](N)C(=O)O [lysine]
growth on test compound as nitrogen source [1]: grow
growth on test compound (substrate range) (Aneurinibacillus sp.): showed growth
